Test results from publication PMC12292521, “Discovery of a Potent Antimicrobial Peptide Through Rational Design: A New Frontier in Pathogen Control” (Biomolecules, 2025).
In brackets after ≈: the same amount, converted by molar mass. Where two headings read alike, the source gives them in different places. Peptide text beside a SMILES is read from it.

Experiments:
[1] = test system: Staphylococcus aureus (MRSA); format: cell-based; settings: for MIC: broth microdilution, 96-well, RKW 1-75 μM
Description: (§1) Therefore, the minimum inhibitory concentration (MIC) and MBC were evaluated. […] Subsequently, the antibiofilm activity of the peptide was tested according to Festa et al.. Specifically, two different concentrations of peptide were used, corresponding to ½ and ¼ of the estimated MIC value, which guarantee the optimal bacterial growth conditions necessary to allow biofilm production. Biofilm production (%) was calculated based on Optical Density (measured at 630 nm) outputs, compared to the control group.

[2] = test system: Enterococcus faecium (VREfm); format: cell-based; settings: broth microdilution, 96-well, RKW 1-75 μM
Description: as §1

[3] = test system: Acinetobacter baumannii (CRAB); format: cell-based
Description: as §1

[4] = 100 µM peptide, 37 °C, 24 h, RP-HPLC C18, absorbance 280 nm, peak area vs time 0, three independent studies
Description: A total of 3.7 mg of peptide was dissolved in 1 mL of Milli-Q H2O to obtain a 2 mM stock solution. A 5% solution of Newborn Calf Serum (NCS) was prepared in Dulbecco’s phosphate-buffered saline (DPBS) (v/v) and then subjected to heat-inactivation by incubating the solution at 57 °C for 45 min (Hi-NCS). Therefore, 100 µM of peptide was incubated in 5% Hi-NCS at 37 °C for 24 h in DPBS. […] Therefore, the samples were centrifuged at 13,000 rpm for 5 min, and the supernatants were diluted in an equal volume of water. Finally, 200 µL of the collected solutions were loaded onto a μBondapak reversed-phase C18 column (Waters, 3.9 mm × 300 mm) connected to an HPLC system (Shimadzu, Milan, Italy), using a linear gradient of acetonitrile (5–95%) in water containing 0.1% TFA at a flow rate of 1 mL/min, and absorbance was detected at 280 nm. […] Samples containing only Hi-NCS were also analyzed. The same experiments were performed in the presence of NCS, not subjected to the heat inactivation treatment. Results are the average of three independent studies.

[5] = test system: Aspergillus brasiliensis ATCC 16404; experiment: Quantitative suspension test, fungicidal activity, BS EN 1650:2019; format: cell-based; set-up: key to Fungicidal activity verdict: Active: For fungi: ACTIVE if log R ≥ 4 according to BS EN 1650:2019; Not Active: For fungi: ACTIVE if log R ≥ 4 according to BS EN 1650:2019; settings: spores, 60 min, 37 °C, BSA 0.3 g/L
Text: (§2) The method is based on the suspension test according to BS EN 1276:2019, which specifies a quantitative suspension analysis for the evaluation of the bactericidal activity of chemical disinfectants and antiseptics used in food, industrial, domestic, and institutional areas against a panel of microorganisms under conditions that more closely simulate practical use. Briefly, S. aureus ATCC 6538, P. aeruginosa ATCC 15442, and Staphylococcus epidermidis ATCC 12228 were used as test organisms at a bacterial concentration of 1.0 × 10^8 colony-forming units (CFU) per mL (CFU/mL). In the test, BSA (Bovine Serum Albumin) (0.3 g/L) was used as an interfering substance to mimic clean conditions. […] The reaction mixture was incubated at 37 °C for 60 min before transferring each sample to a tube containing a neutralizer solution consisting of 30 g/L polysorbate 80, 1 g/L sodium thiosulfate, 3 g/L lecithin, 1 g/L tryptone, 8.5 g/L NaCl, 100 mL/L phosphate buffer and water. The negative control (untreated cells) was prepared using PBS instead of biocides. The solutions were then plated onto Tryptone Soy Agar (TSA) and incubated at 37 °C for 48 h to determine the logarithmic CFU/mL reduction, according to the following Equation:(2) log R = log (N0) − log (Na) where R refers to the reduction in viability, N refers to the number of CFU/mL in the test mixture at the beginning of the contact time, and Na refers to the number of CFU/mL in the test mixture at the end of the contact time. […] The test method and the minimum requirements for fungicidal activity of chemical disinfectant and antiseptic products were performed according to BS EN 1650:2019. The fungicidal activity was studied using the vegetative cells of Candida albicans ATCC 10231 and the spores of Aspergillus brasiliensis ATCC 16404 as test organisms. […] The mixture was maintained at 37 °C for a contact time of 60 min. At the end of this contact time, an aliquot was taken, and the fungicidal activity was immediately neutralized with a solution consisting of 30 g/L polysorbate 80, 1 g/L sodium thiosulfate, 3 g/L lecithin, 1 g/L tryptone, 8.5 g/L NaCl, 100 mL/L phosphate buffer and water. The samples were then plated onto malt extract agar (MEA) and incubated at 30 °C for 48 h to determine the numbers of surviving fungi as the logarithmic CFU/mL reduction, calculated according to Equation (2).

[6] = test system: Candida albicans ATCC 10231; experiment: as above; format: cell-based; set-up: key to Fungicidal activity verdict: Active: For fungi: ACTIVE if log R ≥ 4 according to BS EN 1650:2019; Not Active: For fungi: ACTIVE if log R ≥ 4 according to BS EN 1650:2019; settings: vegetative cells, 60 min, 37 °C, BSA 0.3 g/L
Text: as §2

[7] = test system: Staphylococcus aureus ATCC 6538; experiment: Quantitative suspension test, bactericidal activity, BS EN 1276:2019; format: cell-based; set-up: key to Bactericidal activity verdict: Active: For bacteria: ACTIVE if log R ≥ 5 according to BS EN 1276:2019; Not active: For bacteria: ACTIVE if log R ≥ 5 according to BS EN 1276:2019; settings: 60 min, 37 °C, BSA 0.3 g/L
Text: as §2

[8] = inoculum 5 × 10^3 CFU/mL (3 Log)
[9] = inoculum 5 × 10^5 CFU/mL (5 Log)

Q: Which MBC [1] does the source give for `CC[C@H](C)[C@H](NC(=O)[C@H](Cc1c[nH]c2ccccc12)NC(=O)[C@H](CCCCN)NC(=O)[C@@H](N)CCCNC(=N)N)C(=O)N[C@@H](CC(C)C)C(=O)N[C@@H](CCCCN)C(=O)N[C@@H](Cc1c[nH]c2ccccc12)C(=O)N[C@@H](CC(C)C)C(=O)N[C@@H](CCCNC(=N)N)C(=O)N[C@H](C(=O)N[C@@H](Cc1c[nH]c2ccccc12)C(=O)N[C@@H](CCCCN)C(=O)N[C@@H](CCCCN)C(N)=O)[C@@H](C)O` [RKW] (H-RKWILKWLRTWKK-NH2; N-terminus assumed) here?
A: 50 µM (≈ 92.1 µg/mL)

Q: What about the MIC [1, 8] of the same molecule?
A: 50 µM (≈ 92.1 µg/mL)

Q: And the MIC [1, 9]?
A: 50 µM (≈ 92.1 µg/mL)

Q: And the MIC [2, 8]?
A: 20 µM (≈ 36.8 µg/mL)

Q: And the MIC [2, 9]?
A: 20 µM (≈ 36.8 µg/mL)

Q: And the MBC [3]?
A: 50 µM (≈ 92.1 µg/mL)

Q: What about the “Stability of RKW in heat-inactivated serum (Hi-NCS)” value ([4]; 5% Hi-NCS (57 °C, 45 min) in DPBS) of the same molecule?
A: no peptide breakage

Q: And the “Stability of RKW in serum, not heat-inactivated (NCS)” value ([4]; 5% NCS in DPBS)?
A: complete degradation pattern

Q: What about the Fungicidal activity verdict ([5]; RKW 5 µM) of the same molecule?
A: Na = 3.40 × 10^6 log Na = 6.53 log R = −0.28 Not Active

Q: And the “Na (CFU/mL at the end of the contact time)” value ([5]; RKW 5 µM)?
A: 3.40 × 10^6 CFU/mL

Q: What about the Fungicidal activity verdict ([5]; RKW 10 µM) of the same molecule?
A: Na = 3.30 × 10^6 log Na = 6.52 log R = −0.29 Not Active

Q: What about the “Na (CFU/mL at the end of the contact time)” value ([5]; RKW 10 µM) of the same molecule?
A: 3.30 × 10^6 CFU/mL

Q: What about the Fungicidal activity verdict ([5]; RKW 20 µM) of the same molecule?
A: Na = 2.20 × 10^6 log Na = 6.34 log R = −0.09 Not Active

Q: What about the “Na (CFU/mL at the end of the contact time)” value ([5]; RKW 20 µM) of the same molecule?
A: 2.20 × 10^6 CFU/mL

Q: And the Fungicidal activity verdict ([5]; RKW 50 µM)?
A: Na = 2.20 × 10^6 log Na = 6.34 log R = −0.09 Not Active

Q: What about the “Na (CFU/mL at the end of the contact time)” value ([5]; RKW 50 µM) of the same molecule?
A: 2.20 × 10^6 CFU/mL

Q: What about the Fungicidal activity verdict ([5]; RKW 100 µM) of the same molecule?
A: Na = 2.20 × 10^6 log Na = 6.34 log R = −0.09 Not Active

Q: And the “Na (CFU/mL at the end of the contact time)” value ([5]; RKW 100 µM)?
A: 2.20 × 10^6 CFU/mL

Q: What about the Fungicidal activity verdict ([6]; RKW 5 µM) of the same molecule?
A: Na = 7.70 × 10^4 log Na = 4.89 log R = 1.71 Not Active

Q: What about the “Na (CFU/mL at the end of the contact time)” value ([6]; RKW 5 µM) of the same molecule?
A: 7.70 × 10^4 CFU/mL

Q: And the Fungicidal activity verdict ([6]; RKW 10 µM)?
A: Na = 1.08 × 10^3 log Na = 3.03 log R = 3.57 Not Active

Q: And the “Na (CFU/mL at the end of the contact time)” value ([6]; RKW 10 µM)?
A: 1.08 × 10^3 CFU/mL

Q: What about the Fungicidal activity verdict ([6]; RKW 20 µM) of the same molecule?
A: Na = 2.75 × 10^2 log Na = 2.44 log R = 4.16 Active

Q: What about the “Na (CFU/mL at the end of the contact time)” value ([6]; RKW 20 µM) of the same molecule?
A: 2.75 × 10^2 CFU/mL

Q: What about the Fungicidal activity verdict ([6]; RKW 50 µM) of the same molecule?
A: Na = 2.75 × 10^2 log Na = 2.44 log R = 4.16 Active

Q: What about the “Na (CFU/mL at the end of the contact time)” value ([6]; RKW 50 µM) of the same molecule?
A: 2.75 × 10^2 CFU/mL

Q: And the Fungicidal activity verdict ([6]; RKW 100 µM)?
A: Na = 2.75 × 10^2 log Na = 2.44 log R = 4.16 Active

Q: And the “Na (CFU/mL at the end of the contact time)” value ([6]; RKW 100 µM)?
A: 2.75 × 10^2 CFU/mL

Q: What about the Bactericidal activity verdict ([7]; RKW 5 µM) of the same molecule?
A: Na = 1.11 × 10^5 log Na = 5.10 log R = 2.25 Not active

Q: What about the “Na (CFU/mL at the end of the contact time)” value ([7]; RKW 5 µM) of the same molecule?
A: 1.11 × 10^5 CFU/mL

Q: And the Bactericidal activity verdict ([7]; RKW 10 µM)?
A: Na = 5.10 × 10^4 log Na = 4.71 log R = 2.59 Not active

Q: What about the “Na (CFU/mL at the end of the contact time)” value ([7]; RKW 10 µM) of the same molecule?
A: 5.10 × 10^4 CFU/mL

Q: What about the Bactericidal activity verdict ([7]; RKW 20 µM) of the same molecule?
A: Na= 1.47 × 10^4 log Na = 4.20 log R = 3.13 Not active

Q: And the “Na (CFU/mL at the end of the contact time)” value ([7]; RKW 20 µM)?
A: 1.47 × 10^4 CFU/mL

Q: What about the “Na (CFU/mL at the end of the contact time)” value ([7]; RKW 50 µM) of the same molecule?
A: 1.47 × 10^4 CFU/mL

Q: And the “Na (CFU/mL at the end of the contact time)” value ([7]; RKW 100 µM)?
A: 1.47 × 10^4 CFU/mL
